Read-outs that look alike come from different tables or passages of the source. Blank lines part the entries; values can stand above or below the molecule they belong to.
What was measured:
CLK2 ; P49760-3;P49760 = CLK2 ; P49760-3;P49760 (Homo sapiens, UniProt P49760); assay: biochemical; design: species or system AsPC-1; Kinobeads competition pulldown in AsPC-1 lysate with LC-MS/MS label-free quantification; apparent Kd
Experimental: (§1) This was followed by incubation with Kinobeads ε (17.5 µl of settled beads) for 30 min at 4 °C to enrich kinases. […] Enriched proteins were reduced with 50 mM DTT in 8 M urea, 40 mM Tris-HCl, pH 7.4 for 30 min at room temperature, and alkylated with 55 mM chloroacetamide. After reducing the urea concentration to 1–2 M, proteins were digested with trypsin at 37 °C for 16 h. Subsequently, eluted peptides were desalted using SepPak tC18 µElution plates (Waters), freeze-dried by vacuum centrifugation, and stored at −20 °C. Proteins were filtered by potential contaminants, reversed hits and proteins identified only by site. Residual binding of proteins was calculated from LFQ intensities as the ratio between drug doses and vehicle. […] Only kinases quantified with at least 4 unique peptides in the vehicle experiment were considered. Potential targets were further curated through manual inspection of dose-dependent reduction in MS/MS and unique peptide counts.

AXL ; P30530-2;P30530 = AXL ; P30530-2;P30530 (Homo sapiens, UniProt P30530); assay: biochemical; design: species or system AsPC-1; Kinobeads competition pulldown in AsPC-1 lysate with LC-MS/MS label-free quantification; apparent Kd
AXL ; P30530-2;P30530, sequence (P30530 whole entry): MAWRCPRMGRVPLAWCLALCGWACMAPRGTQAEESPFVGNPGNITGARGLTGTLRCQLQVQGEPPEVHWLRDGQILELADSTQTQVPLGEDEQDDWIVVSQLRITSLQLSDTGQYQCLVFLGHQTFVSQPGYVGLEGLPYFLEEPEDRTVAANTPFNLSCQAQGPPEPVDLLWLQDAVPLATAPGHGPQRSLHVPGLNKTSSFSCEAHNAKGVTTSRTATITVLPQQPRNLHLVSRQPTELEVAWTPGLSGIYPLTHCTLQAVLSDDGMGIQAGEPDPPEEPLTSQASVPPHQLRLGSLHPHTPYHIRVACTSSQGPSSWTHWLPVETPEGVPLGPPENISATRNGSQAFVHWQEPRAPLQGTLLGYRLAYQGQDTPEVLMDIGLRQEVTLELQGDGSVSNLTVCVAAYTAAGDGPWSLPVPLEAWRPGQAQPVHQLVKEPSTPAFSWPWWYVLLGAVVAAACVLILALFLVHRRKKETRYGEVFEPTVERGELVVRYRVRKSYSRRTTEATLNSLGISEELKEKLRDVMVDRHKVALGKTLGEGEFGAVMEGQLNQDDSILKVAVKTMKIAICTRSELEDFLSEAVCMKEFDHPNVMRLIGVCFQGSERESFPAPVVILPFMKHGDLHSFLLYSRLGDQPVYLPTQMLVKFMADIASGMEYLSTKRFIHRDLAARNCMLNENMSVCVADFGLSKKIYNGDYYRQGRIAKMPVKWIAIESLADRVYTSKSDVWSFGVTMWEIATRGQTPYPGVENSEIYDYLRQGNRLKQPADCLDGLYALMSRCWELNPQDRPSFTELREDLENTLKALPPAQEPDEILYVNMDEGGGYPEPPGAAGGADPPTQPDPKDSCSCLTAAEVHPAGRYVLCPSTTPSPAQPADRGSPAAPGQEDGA
Experimental: as §1

Dan-G cells = assay: Drug combination viability screen (ATPlite, 72 h); type: cell-based, human; design: AUC: unit not given beside the values; Reponse: unit not given here; settings: for EC50: Homo sapiens;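 as to AUC: area under vehicle-normalized viability curve scaled 0 to 100 percent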;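 as to Curve bottom: fraction of vehicle control viability from four-parameter log-logistic fit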
Experimental: (§2) Cell viability was assessed by measuring ATP levels to indicate metabolic activity.
(§3) Afterward, small amounts were transferred to 384-well intermediate plates (Greiner Bio-One GmbH, Germany). […] For drug combination screening, 1000 to 5000 cells were seeded into 384-well plates (CulturPlate™, Perkin Elmer, MA, USA) using a Multidrop™ Combi Reagent Dispenser (Thermo Scientific, MA, USA) in 50 µl medium per well 24 h prior to drug treatment (seeding densities see Appendix Table S1). […] The final DMSO concentration in each well was 0.2%. […] Eight wells per plate without library drug served as negative controls, and sixteen wells per plate containing 5 µM Staurosporine served as positive controls. Control plates not containing any drug were used to correct for incubation effects, and data quality was assessed by calculation of Z-prime of positive and negative controls according to1 Z-prime=1−3SDpos+3SDneg/[…] where SD is the standard deviation. […] Dose–response curves from the experimental and hypothetical data were compared, and shifts in AUC were used to describe combination effects (AUC∆ = AUChypothetical − AUCexperimental). […] Only combinations with R^2 > 0.8 in both conditions were considered in the synergy analysis.

Capan-1 cells = assay: Drug combination viability screen (ATPlite, 72 h); type: cell-based, human; design: AUC: unit not given beside the values; Reponse: unit not given here; settings: for EC50: Homo sapiens, CAPAN-1;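 as to AUC: area under vehicle-normalized viability curve scaled 0 to 100 percent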;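 as to Curve bottom: fraction of vehicle control viability from four-parameter log-logistic fit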
Experimental: as §2, §3

FAMPAC cells = assay: Drug combination viability screen (ATPlite, 72 h); type: cell-based, human; design: AUC: unit not given beside the values; Reponse: unit not given here; settings: for EC50: Homo sapiens;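 as to AUC: area under vehicle-normalized viability curve scaled 0 to 100 percent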;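 as to Curve bottom: fraction of vehicle control viability from four-parameter log-logistic fit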
Experimental: as §2, §3

MAPK9 = test system: MAPK9; design: method as in Klaeger et al. (2017); settings: lysate 4 cell line mix (Colo205, K-562, MV-4-11, and SK-N-BE(2)), Kinobeads y, ref Klaeger et al. (2017); cited from earlier work
RPS6KA6 = test system: RPS6KA6; design: method as in Klaeger et al. (2017); settings: lysate 4 cell line mix (Colo205, K-562, MV-4-11, and SK-N-BE(2)), Kinobeads y, ref Klaeger et al. (2017); cited from earlier work
INSR = molecular target: INSR; design: method as in Reinecke et al. (2023); settings: 5 cell line mix lysate, Kinobeads ε, ref Reinecke et al. (2023), cited from earlier work
PLK1 = test system: PLK1; design: method as in Reinecke et al. (2023); settings: PLK1, 5 cell line mix lysate, Kinobeads ε, ref Reinecke et al. (2023), cited from earlier work
PDGFRB = molecular target: PDGFRB; design: method as in Reinecke et al. (2023); settings: 5 cell line mix lysate, Kinobeads ε, ref Reinecke et al. (2023), cited from earlier work

CLK2 ; P49760-3;P49760, sequence (P49760 whole entry): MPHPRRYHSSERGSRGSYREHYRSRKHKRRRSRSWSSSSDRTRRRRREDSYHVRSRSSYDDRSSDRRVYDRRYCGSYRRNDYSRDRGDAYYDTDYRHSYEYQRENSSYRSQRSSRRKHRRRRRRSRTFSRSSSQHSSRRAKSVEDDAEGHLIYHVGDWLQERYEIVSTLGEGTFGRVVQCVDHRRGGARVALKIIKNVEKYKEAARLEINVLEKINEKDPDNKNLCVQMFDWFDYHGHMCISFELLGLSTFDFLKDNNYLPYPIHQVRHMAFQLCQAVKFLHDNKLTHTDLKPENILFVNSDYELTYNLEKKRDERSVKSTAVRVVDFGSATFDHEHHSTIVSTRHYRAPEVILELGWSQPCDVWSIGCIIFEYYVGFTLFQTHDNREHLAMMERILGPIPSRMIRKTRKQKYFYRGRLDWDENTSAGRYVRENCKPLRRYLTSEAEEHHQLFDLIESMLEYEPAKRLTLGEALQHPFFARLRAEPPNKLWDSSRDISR

- Kd (CLK2 ; P49760-3;P49760): 303 nM
- Kd (AXL ; P30530-2;P30530): 473 nM
Structure (SMILES): Nc1nn2cc(F)cnc2c1C(=O)Nc1cncc(F)c1N1CCC(C(=O)N2CCN(C3COC3)CC2)CC1 [Gartisertib]

Structure (SMILES): Nc1ccn([C@@H]2O[C@H](CO)[C@@H](O)C2(F)F)c(=O)n1 [GEM, Gemcitabine]
- Reponse (Dan-G cells; Dan-G, R1, 13.72 nM): 414760
- Reponse (Dan-G cells; Dan-G, R1, 41.15 nM): 446720
- Reponse (Dan-G cells; Dan-G, R1, […] nM): 403560
- Reponse (Dan-G cells; Dan-G, R1, 370.37 nM): 418200
- Reponse (Dan-G cells; Dan-G, R1, 1111.11 nM): 322600
- Reponse (Dan-G cells; Dan-G, R1, 3333.33 nM): 330080
- Reponse (Dan-G cells; Dan-G, R1, 10000 nM): 365160
- Reponse (Dan-G cells; Dan-G, R2, 13.72 nM): 688800
- Reponse (Dan-G cells; Dan-G, R2, 41.15 nM): 616960
- Reponse (Dan-G cells; Dan-G, R2, […] nM): 613120
- Reponse (Dan-G cells; Dan-G, R2, 370.37 nM): 664240
- Reponse (Dan-G cells; Dan-G, R2, 1111.11 nM): 563000
- Reponse (Dan-G cells; Dan-G, R2, 3333.33 nM): 536360
- Reponse (Dan-G cells; Dan-G, R2, 10000 nM): 535080
- Curve bottom (Dan-G cells; Dan-G, GEM curve fit): 0.11
- Curve effect size (Dan-G cells; Dan-G, GEM curve fit): 0.89
- Curve slope (Dan-G cells; Dan-G, GEM curve fit): 3.23
- Curve top (Dan-G cells; Dan-G, GEM curve fit): 0.99
- AUC (Dan-G cells; Dan-G, GEM curve fit, in %): 25.98
- EC50 (Dan-G cells; read-out: EC50): 1.1 nM
- EC50 (Dan-G cells; read-out: pEC50 (converted)): 1.1 nM
- Reponse (Capan-1 cells; Capan-1, R1, 13.72 nM): 1419520
- Reponse (Capan-1 cells; Capan-1, R1, 41.15 nM): 1052200
- Reponse (Capan-1 cells; Capan-1, R1, […] nM): 1039880
- Reponse (Capan-1 cells; Capan-1, R1, 370.37 nM): 891520
- Reponse (Capan-1 cells; Capan-1, R1, 1111.11 nM): 819880
- Reponse (Capan-1 cells; Capan-1, R1, 3333.33 nM): 826400
- Reponse (Capan-1 cells; Capan-1, R1, 10000 nM): 882520
- Reponse (Capan-1 cells; Capan-1, R2, 13.72 nM): 1725080
- Reponse (Capan-1 cells; Capan-1, R2, 41.15 nM): 1554080
- Reponse (Capan-1 cells; Capan-1, R2, […] nM): 1198840
- Reponse (Capan-1 cells; Capan-1, R2, 370.37 nM): 1201400
- Reponse (Capan-1 cells; Capan-1, R2, 1111.11 nM): 991280
- Reponse (Capan-1 cells; Capan-1, R2, 3333.33 nM): 798760
- Reponse (Capan-1 cells; Capan-1, R2, 10000 nM): 1054200
- Curve bottom (Capan-1 cells; Capan-1, GEM curve fit): 0.16
- Curve effect size (Capan-1 cells; Capan-1, GEM curve fit): 0.84
- Curve slope (Capan-1 cells; Capan-1, GEM curve fit): 1.86
- Curve top (Capan-1 cells; Capan-1, GEM curve fit): 1.03
- AUC (Capan-1 cells; Capan-1, GEM curve fit, in %): 31.71
- EC50 (Capan-1 cells; read-out: EC50): 1.26 nM
- EC50 (Capan-1 cells; read-out: pEC50 (converted)): 1.26 nM
- Reponse (FAMPAC cells; FAMPAC, R1, 13.72 nM): 385920
- Reponse (FAMPAC cells; FAMPAC, R1, 41.15 nM): 215680
- Reponse (FAMPAC cells; FAMPAC, R1, […] nM): 157840
- Reponse (FAMPAC cells; FAMPAC, R1, 370.37 nM): 175320
- Reponse (FAMPAC cells; FAMPAC, R1, 1111.11 nM): 225320
- Reponse (FAMPAC cells; FAMPAC, R1, 3333.33 nM): 238760
- Reponse (FAMPAC cells; FAMPAC, R1, 10000 nM): 195520
- Reponse (FAMPAC cells; FAMPAC, R2, 13.72 nM): 606360
- Reponse (FAMPAC cells; FAMPAC, R2, 41.15 nM): 377000
- Reponse (FAMPAC cells; FAMPAC, R2, […] nM): 333400
- Reponse (FAMPAC cells; FAMPAC, R2, 370.37 nM): 317560
- Reponse (FAMPAC cells; FAMPAC, R2, 1111.11 nM): 328240
- Reponse (FAMPAC cells; FAMPAC, R2, 3333.33 nM): 349400
- Reponse (FAMPAC cells; FAMPAC, R2, 10000 nM): 314920
- Curve bottom (FAMPAC cells; FAMPAC, GEM curve fit): 0.05
- Curve effect size (FAMPAC cells; FAMPAC, GEM curve fit): 0.95
- Curve slope (FAMPAC cells; FAMPAC, GEM curve fit): 2.01
- Curve top (FAMPAC cells; FAMPAC, GEM curve fit): 0.99
- AUC (FAMPAC cells; FAMPAC, GEM curve fit, in %): 25.43
- EC50 (FAMPAC cells; read-out: EC50): 1.71 nM
- EC50 (FAMPAC cells; read-out: pEC50 (converted)): 1.7 nM

Structure (SMILES): C[C@]12O[C@H](C[C@]1(O)CO)n1c3ccccc3c3c4c(c5c6ccccc6n2c5c31)CNC4=O [Lestaurtinib]
- EC50 (MAPK9): 2470 nM
- EC50 (RPS6KA6): 2330 nM

Structure (SMILES): COc1cc(N2CCC(N3CCN(C)CC3)CC2)ccc1Nc1ncc(Cl)c(Nc2ccccc2P(C)(C)=O)n1 [Brigatinib]
- Kd (INSR; read-out: KDapp): 1320 nM
- EC50 (INSR): 1750 nM
- pKDapp (INSR): 5.88
- EC50 (PLK1): 1100 nM
- pKDapp (PLK1): 5.99
- Kd (PLK1; read-out: KDapp): 1010 nM
- Kd (PDGFRB; read-out: KDapp): 737 nM
- EC50 (PDGFRB): 843 nM
- pKDapp (PDGFRB): 6.13

Source: publication PMC11876601 (Molecular Systems Biology, 2025)
